This note sets out measurements from patent US6464991B1, “Oat lipid based surfactants and derivatives and process for preparing same” (Finetex, Inc., priority 1999, dated 2002).

For one data set, the system named is Ocular Tissue Model. Briefly: Ocular irritation, Mat-Tek in-vitro Ocular Tissue Model (non-animal). It is filed as cell-based. From the text: (§1) These studies were done using non-animal test protocols. Skin Tissue Model and Ocular Tissue Model by Mat-Tek Corporation in-vitro systems were used for dermal and ocular irritation studies.
The next data set deals with Skin Tissue Model. Briefly: Dermal irritation, Mat-Tek in-vitro Skin Tissue Model (non-animal). It is filed as cell-based.
Excerpt: as §1

Regarding “nonylphenol 10 EO Ethoxylate [Positive Control]”, the “Ocular Tox Irritation Ratings/Classifications” value in the data set with Ocular Tissue Model is listed as “Moderate to mild range”. Also, in the data set with Skin Tissue Model, the “Dermal Tox Irritation Ratings/Classifications” value is on record as “Moderate to mild range”.
